From patent publication US12178807B2, “Macrocyclic tyrosine kinase inhibitor and uses thereof” (XUANZHU BIOPHARMACEUTICAL CO., LTD., priority 2018, dated 2024)

Experiments:
[1] = tested on: BaF3-LMNA-NTRK1-G595R stable cell strain xenograft tumor; experiment: Efficacy study on BaF3-LMNA-NTRK1-G595R stable cell strain subcutaneous xenograft model; assay type: in vivo, mice (NOD-SCID); conditions: bid, p.o., 7 days
Experimental: The RPMI 1640 serum-free medium resuspended BaF3 LMNA-NTRK1-G595R stable cell strains were inoculated subcutaneously in the right scapular region of mice (NOD-SCID) at 1×10^6 cells/mouse (0.1 mL/mouse).
When the average tumor volume was around 500 mm^3, the groups were randomized into vehicle group, Compound 3 group (10 mg/kg, 5 mg/kg, 3 mg/kg, 1 mg/kg, bid) and LOXO-195 group (30 mg/kg, 10 mg/kg, 3 mg/kg, bid).

[2] = tested on: Ba/F3 LMNA-NTRK1-G595R cell line; experiment: In vitro cytological inhibitory activity (CelltiterGlo assay); assay type: cell-based; conditions: Mus musculus, BaF3, Ba/F3 LMNA-NTRK1-G595R cells, 72 hrs
Experimental: (§1) The cell lines used in the experiment have the following meanings: Ba/F3 LMNA-NTRK1-G595R cell line: • a stable expression cell line of Ba/F3 cells transfected with LMNA-NTRK1 G595R; Ba/F3 ETV6-NTRK3-G623R cell line: • a stable expression cell line of Ba/F3 cells transfected with ETV6-NTRK3-G623R. Experimental Method (CelltiterGlo Assay) 1. Cell Culture and Inoculation
(§2) All cells were suspension cells and the medium was RPMI-1640+10% FBS, and cells were tested in a logarithmic growth phase.
(§3) Cells in the logarithmic growth phase were collected and counted using a […]. The cell viability was detected by the trypan blue exclusion method, and the cell viability was kept over 90%. The cell concentration was adjusted to be in a proper range; 90 μL of the cell suspension was added to a 96-well plate.
(§4) The stock solutions of test compounds were diluted from 10 mM to 1 mM with DMSO and then serially diluted in a 3-fold gradient for 9 concentrations. The 2 μL DMSO-gradient diluted compound solutions were added to 98 μL culture solutions to give working stock solutions of test compounds (compound concentration was 10-fold higher than the final concentration, DMSO concentration was 1%, maximum concentration was 10 μM).
(§5) • 10 μL of compound working stock solution was added to each well in the 96-well plate inoculated with cells (10-fold dilution, final DMSO concentration was 0.1%).
(§6) The cells were cultured in a cell culture incubator at 5% CO2 for 72 hrs.
(§7) The CTG reagent was thawed and the cell plate was equilibrated to room temperature for 30 mins, 60 μL of reagent (Celltiter Glo assay kit) was added to each well, shaking was performed for 2 mins with a shaker (in the absence of light), and the plate was incubated at room temperature for 10 mins (in the absence of light). The light signal values were read on the multi-functional microplate reader.
(§8) • 1) Inhibition (%)=(DMSO solvent control well reading−test compound well reading)/(DMSO solvent control well reading−blank well reading)×100%; • 2) a curve was plotted with GraphPad Prism 5.0 and IC50 was obtained.

[3] = tested on: Ba/F3 ETV6-NTRK3-G623R cell line; experiment: as above; assay type: cell-based; conditions: Mus musculus, BaF3, Ba/F3 ETV6-NTRK3-G623R cells, 72 hrs
Experimental: as §1, §2, §3, §4, §5, §6, §7, §8

[4] = tested on: Ba/F3 SLC34A2/ROS1-G2032R cell line; experiment: In vitro cytological inhibitory activity (Celltiter-Glo assay); assay type: cell-based; conditions: Mus musculus, BaF3, Ba/F3 SLC34A2/ROS1-G2032R cells, 72 hrs
Experimental: The cell lines used in the experiment have the following meanings: • Ba/F3 SLC34A2/ROS1-G2032R cell line: • a stable expression cell line of Ba/F3 cells transfected with SLC34A2/ROS1-G2032R. Experimental Method (Celltiter-Glo Assay) 1. Cell Culture and Inoculation
as §2, §3
as §4, with “3.16-fold” for “3-fold”
as §5
The final concentrations of test compounds were: 1000 nM, 316 nM, 100 nM, 31.6 nM, 10 nM, 3.16 nM, 1 nM, 0.316 nM and 0.1 nM.
as §6
as §7, with “100” for “60”, “5” for “2”, “20” for “10”
• 1) Cell viability (%)=(test compound well reading−blank well reading)/(DMSO solvent control well reading−blank well reading)×100%; • 2) a curve was plotted with GraphPad Prism 5.0 and IC50 was obtained.

IC50 [2]	IC50 [3]	IC50 [4]	Structure (SMILES)	T/C (%) ([1]; Experiment 1, 3 mg/Kg)	TGI (%) ([1]; Experiment 1, 3 mg/Kg)	further results
0.6 nM	1 nM		C[C@H]1COc2ncc(F)cc2[C@H]2CCCN2c2ccc3ncn(c3n2)C(=O)N1 (single isomer, unassigned) [Compound 2]			
17.3 nM	18.9 nM	6.7 nM	C[C@H]1COc2ncc(F)cc2[C@@H](C)Nc2ccc3ncn(c3n2)C(=O)N1 [Compound 13, (3R,7S)-4^5-fluoro-3,7-dimethyl-1^3H-5-oxa-2,8-diaza-1(5,3)-imidazo[4,5-b]pyridina-4(3,2)-pyridinacyclononphan-9-one]			

Second part, the compound before the results:

Structure (SMILES)	IC50 [2]	IC50 [3]	IC50 [4]	T/C (%) ([1]; Experiment 1, 3 mg/Kg)	TGI (%) ([1]; Experiment 1, 3 mg/Kg)	further results
C[C@@H]1CCc2ncc(F)cc2[C@H]2CCCN2c2ccn3ncc(c3n2)C(=O)N1 [LOXO-195, reference compound]				93.6%	6.4%	T/C (%) ([1]; Experiment 1, 10 mg/Kg): 63.1%; TGI (%) ([1]; Experiment 1, 10 mg/Kg): 36.9%; T/C (%) ([1]; Experiment 2, 30 mg/Kg): 0%; TGI (%) ([1]; Experiment 2, 30 mg/Kg): 100%
C[C@@H]1COc2ncc(F)cc2[C@H]2CCCN2c2ccc3ncn(c3n2)C(=O)N1 (single isomer, unassigned) [Compound 3]	0.6 nM	1 nM	2.3 nM	73.2%	26.8%	T/C (%) ([1]; Experiment 2, 1 mg/Kg): 53.7%; TGI (%) ([1]; Experiment 2, 1 mg/Kg): 46.3%; T/C (%) ([1]; Experiment 2, 5 mg/Kg): 0%; TGI (%) ([1]; Experiment 2, 5 mg/Kg): 100%; T/C (%) ([1]; Experiment 2, 10 mg/Kg): 0%; TGI (%) ([1]; Experiment 2, 10 mg/Kg): 100%
C[C@@H]1CCc2ncc(F)cc2[C@H]2CCCN2c2ccc3ncn(c3n2)C(=O)N1 (single isomer, unassigned) [Compound 11]	2 nM	1.9 nM	4.2 nM			
